Experimental data published in US6458796B1, “Dihydro-[1,2,3]triazolo-[4,5-d]pyrimidin-7-one” (Bayer Aktiengesellschaft, priority 1998, dated 2002).

Key:
[1] = system: T1, Ca2+-calmodulin-stimulated PDE I; test: Inhibition of the phosphodiesterases in vitro: PDE I; assay type: biochemical, porcine or bovine (preferably bovine aorta); details: 1 μM CaCl2 and 0.1 μM calmodulin added; substrate 10^-6 mol/l
T1 construct: The Ca^2+-calmodulin-stimulated PDE I was isolated from porcine aorta, porcine brain or, preferably, from bovine aorta
Method: (§1) The c-GMP-stimulated PDE II, the c-GMP-inhibited PDE III and the cAMP-specific PDE IV were isolated either from porcine or bovine heart myocardium. The Ca^2+-calmodulin-stimulated PDE I was isolated from porcine aorta, porcine brain or, preferably, from bovine aorta. The c-GMP-specific PDE V was obtained from porcine small intestine, porcine aorta, human platelets and, preferably, from bovine aorta. Purification was carried out by anion exchange chromatography over MonoQ^R Pharmacia, essentially following the method of M. Hoey and Miles D. Houslay, Biochemical Pharmacology, Vol. 40, 193-202 (1990) and C. Lugman et al. Biochemical Pharmacology Vol. 35 1743-1751 (1986).
(§2) The enzyme activity is determined using a test mixture of 100 μl in 20 mM Tris/HCl buffer pH 7.5 containing 5 mM MgCl2, 0.1 mg/ml of bovine serum albumin and either 800 Bq ^3HcAMP or ^3HcGMP. The final concentration of the nucleotides in question is 10^−6 mol/l. The reaction is initiated by addition of the enzyme and the amount of enzyme is such that during the incubation time of 30 min, approximately 50% of the substrate is converted. To test the cGMP-stimulated PDE II, ^3HcAMP is used as substrate and 10^−6 mol/l of non-labelled cGMP are added to the mixture. To test the Ca-calmodulin-dependent PDE I, 1 μM of CaCl2 and 0.1 μM of calmodulin are added to the reaction mixture. The reaction is quenched by addition of 100 μL of acetonitrile, containing 1 mM cAMP and 1 mM AMP. 100 μl of the reaction mixture are separated by HPLC and the cleavage products are determined quantitatively on-line using a continuous scintillation counter. The substance concentration measured is the concentration at which the reaction rate is reduced by 50%. Additionally, the “phodiesterase [^3H] cAMP-SPA enzyme assay” and the “phosphodiesterase [^3H] cGMP-SPA enzyme assay” from Amersham Life Science were used for testing. The test was carried out according to the test protocol of the manufacturer. To determine the activity of PDE2, the [^3H] cAMP-SPA assay was used, and 10^−6 M cGMP were added to the reaction mixture to activate the enzyme. To measure PDE1, 10^−7 M calmodulin and 1 μM CaCl2 were added to the reaction mixture. PDE5 was measured using the [^3H] cGMP-SPA assay.

[2] = biological target: T2, c-GMP-stimulated PDE II (UniProt P14099); test: Inhibition of the phosphodiesterases in vitro: PDE II; assay type: biochemical, porcine or bovine (heart myocardium); details: 3HcAMP substrate, 10^-6 mol/l cGMP added
T2 sequence (P14099 1-921): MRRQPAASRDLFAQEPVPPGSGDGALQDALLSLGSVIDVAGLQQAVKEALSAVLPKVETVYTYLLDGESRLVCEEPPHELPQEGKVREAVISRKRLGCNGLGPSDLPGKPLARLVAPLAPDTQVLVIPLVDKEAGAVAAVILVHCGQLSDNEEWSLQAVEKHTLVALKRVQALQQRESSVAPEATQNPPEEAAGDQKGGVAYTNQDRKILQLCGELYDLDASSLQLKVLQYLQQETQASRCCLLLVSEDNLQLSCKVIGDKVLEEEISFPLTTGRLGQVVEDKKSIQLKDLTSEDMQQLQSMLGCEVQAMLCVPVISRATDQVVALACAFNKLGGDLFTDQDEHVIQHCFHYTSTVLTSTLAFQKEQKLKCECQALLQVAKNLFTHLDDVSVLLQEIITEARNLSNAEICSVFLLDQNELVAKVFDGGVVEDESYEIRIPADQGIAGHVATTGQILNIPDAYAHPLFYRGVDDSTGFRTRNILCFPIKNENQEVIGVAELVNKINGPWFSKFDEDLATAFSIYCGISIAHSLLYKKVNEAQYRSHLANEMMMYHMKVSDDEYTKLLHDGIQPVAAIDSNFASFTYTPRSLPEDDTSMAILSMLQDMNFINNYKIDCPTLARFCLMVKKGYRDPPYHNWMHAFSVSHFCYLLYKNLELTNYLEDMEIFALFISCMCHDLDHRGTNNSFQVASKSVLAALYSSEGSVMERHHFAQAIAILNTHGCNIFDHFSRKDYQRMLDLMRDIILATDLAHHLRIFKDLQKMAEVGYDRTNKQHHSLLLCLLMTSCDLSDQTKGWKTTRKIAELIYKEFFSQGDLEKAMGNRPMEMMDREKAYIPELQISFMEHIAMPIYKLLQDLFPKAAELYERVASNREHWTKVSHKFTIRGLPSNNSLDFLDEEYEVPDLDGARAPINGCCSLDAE
Method: as §1, §2

[3] = biological target: T3, c-GMP-specific PDE V (Bos taurus, UniProt Q28156); test: Inhibition of the phosphodiesterases in vitro: PDE V; assay type: biochemical, porcine, human platelets or, preferably, bovine aorta; details: 3HcGMP substrate 10^-6 mol/l
T3 construct: porcine aorta, human platelets and, preferably, from bovine aorta; from tissue; host or cells: porcine small intestine, porcine aorta, human platelets or, preferably, bovine aorta
Method: as §1, §2

Row | Compound | IC50 [1] | IC50 [2] | IC50 [3] | melting point
1 | CC(O)C(CCCc1ccccc1)n1nnc2c(=O)[nH]c(Cc3ccc4c(c3)OCO4)nc21 (stereo not shown) [Example 30, 5-Benzo[1,3]dioxol-5-ylmethyl-3-[1-(1-hydroxy-ethyl)-4-phenyl-butyl]-3,6-dihydro-[1,2,3]triazolo[4,5-d]pyrimidin-7-one] | 0.5 µM | 0.3 µM | ≥ 1 µM | –
2 | COc1ccc(Cc2nc3c(nnn3C(CCCc3ccccc3)C(C)O)c(=O)[nH]2)cc1OC (stereo not shown) [Example 31, 5-(3,4-Dimethoxy-benzyl)-3-[1-(1-hydroxy-ethyl)-4-phenyl-butyl]-3,6-dihydro-[1,2,3]triazolo[4,5-d]pyrimidin-7-one] | > 1 µM | 0.04 µM | > 1 µM | –
3 | CC(CCCc1ccccc1)n1nnc2c(=O)[nH]c(Cc3ccccc3)nc21 (stereo not shown) [Example 4, 5-Benzyl-3-(1-methyl-4-phenyl-butyl)-3,6-dihydro-[1,2,3]triazolo[4,5-d]pyrimidin-7-one] | – | – | – | 112 °C
4 | CNS(=O)(=O)c1ccc(Cc2nc3c(nnn3C(C)CCCc3ccccc3)c(=O)[nH]2)cc1 (stereo not shown) [Example 19, N-Methyl-4-[3-(1-methyl-4-phenyl-butyl)-7-oxo-6,7-dihydro-3H-[1,2,3]-triazolo-[4,5-d]pyrimidin-5-ylmethyl]-benzenesulphonamide] | 0.2 µM | 0.2 µM | > 1 µM | –
5 | COc1ccc(Cc2nc3c(nnn3C(C)CCCc3ccccc3)c(=O)[nH]2)cc1OC (stereo not shown) [Example 5, 5-(3,4-Dimethoxy-benzyl)-3-(1-methyl-4-phenyl-butyl)-3,6-dihydro-[1,2,3]triazolo-[4,5-d]pyrimidin-7-one] | 0.5 µM | 0.08 µM | 0.5 µM | –
6 | CC(CCCc1ccccc1)n1nnc2c(=O)[nH]c(Cc3ccc(S(=O)(=O)NCCO)cc3)nc21 (stereo not shown) [Example 23, N-(2-Hydroxyethyl)-4-[3-(1-methyl-4-phenyl-butyl)-7-oxo-6,7-dihydro-3H-[1,2,3]triazolo[4,5-d]pyrimidin-5-ylmethyl]benzenesulphonamide] | 0.1 µM | 0.1 µM | > 1 µM | –
